Source: patent US11613527B2, “Enzyme inhibitors” (KalVista Pharmaceuticals Limited, priority 2019, dated 2023)
Each block holds one molecule with its values, some of them ahead of it.

Assays:
Assay type in all cases: biochemical
[1] = biological target: Human plasma kallikrein (Homo sapiens (Human), UniProt P03952); assay: Determination of the IC50 for plasma kallikrein (fluorogenic substrate H-DPro-Phe-Arg-AFC); details: class symbols A-D, read-out: IC50 (human PKal)
Procedure: The ability of the compounds of formula (I) to inhibit plasma kallikrein may be determined using the following biological assay:
Determination of the IC50 for Plasma Kallikrein
(§1) Plasma kallikrein inhibitory activity in vitro was determined using standard published methods (see e.g. Johansen et al., Int. J. Tiss. Reac. 1986, 8, 185; Shori et al., Biochem. Pharmacol., 1992, 43, 1209; Sturzebecher et al., Biol. Chem. Hoppe-Seyler, 1992, 373, 1025). Human plasma kallikrein (Protogen) was incubated at 25° C. with the fluorogenic substrate H-DPro-Phe-Arg-AFC and various concentrations of the test compound. Residual enzyme activity (initial rate of reaction) was determined by measuring the change in optical absorbance at 410 nm and the IC50 value for the test compound was determined.

[2] = biological target: Human FXIa (Homo sapiens (Human), UniProt P03951); assay: Determination of the % inhibition for FXIa (fluorogenic substrate Z-Gly-Pro-Arg-AFC; 40 μM or IC50)
Procedure: Selected compounds were further screened for inhibitory activity against the related enzyme FXIa. The ability of the compounds of formula (I) to inhibit FXIa may be determined using the following biological assay:
Determination of the % Inhibition for FXIa
FXIa inhibitory activity in vitro was determined using standard published methods (see e.g. Johansen et al., Int. J. Tiss. Reac. 1986, 8, 185; Shori et al., Biochem. Pharmacol., 1992, 43, 1209; Sturzebecher et al., Biol. Chem. Hoppe-Seyler, 1992, 373, 1025). Human FXIa (Enzyme Research Laboratories) was incubated at 25° C. with the fluorogenic substrate Z-Gly-Pro-Arg-AFC and 40 μM of the test compound (or alternatively at various concentrations of the test compound in order to determine IC50). Residual enzyme activity (initial rate of reaction) was determined by measuring the change in optical absorbance at 410 nm and the IC50 value for the test compound was determined.

[3] = biological target: Human KLK1 (Homo sapiens (Human), UniProt P06870); assay: Determination of the IC50 for KLK1 (fluorogenic substrate H-DVal-Leu-Arg-AFC)
Procedure: Selected compounds were further screened for inhibitory activity against the related enzyme KLK1. The ability of the compounds of formula (I) to inhibit KLK1 may be determined using the following biological assay:
Determination of the IC50 for KLK1
as §1, with “KLK1” for “Plasma kallikrein”, “KLK1 (Callbiochem)” for “plasma kallikrein (Protogen)”, “H-DVal-Leu-Arg-AFC” for “H-DPro-Phe-Arg-AFC”

Sequence of Human FXIa (P03951 388-625): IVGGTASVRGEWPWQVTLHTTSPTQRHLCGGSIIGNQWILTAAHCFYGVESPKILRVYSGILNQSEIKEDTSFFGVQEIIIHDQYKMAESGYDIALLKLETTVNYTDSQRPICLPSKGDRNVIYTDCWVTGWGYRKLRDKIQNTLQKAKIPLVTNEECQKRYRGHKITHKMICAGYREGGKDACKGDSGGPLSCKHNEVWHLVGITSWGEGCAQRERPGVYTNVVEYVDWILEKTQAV
Sequence of Human FXIa (P03951 19-387 partner): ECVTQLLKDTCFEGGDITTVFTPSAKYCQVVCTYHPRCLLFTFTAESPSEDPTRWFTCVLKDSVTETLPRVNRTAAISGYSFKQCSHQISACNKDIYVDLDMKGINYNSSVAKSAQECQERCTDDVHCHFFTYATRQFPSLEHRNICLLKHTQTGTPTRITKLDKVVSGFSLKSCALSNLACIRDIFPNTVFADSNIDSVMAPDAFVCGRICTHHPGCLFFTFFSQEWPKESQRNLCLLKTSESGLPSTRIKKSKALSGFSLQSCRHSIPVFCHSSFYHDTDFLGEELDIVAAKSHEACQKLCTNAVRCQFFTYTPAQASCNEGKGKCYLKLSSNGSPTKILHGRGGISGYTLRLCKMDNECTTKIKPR
Sequence of Human KLK1 (P06870 25-262): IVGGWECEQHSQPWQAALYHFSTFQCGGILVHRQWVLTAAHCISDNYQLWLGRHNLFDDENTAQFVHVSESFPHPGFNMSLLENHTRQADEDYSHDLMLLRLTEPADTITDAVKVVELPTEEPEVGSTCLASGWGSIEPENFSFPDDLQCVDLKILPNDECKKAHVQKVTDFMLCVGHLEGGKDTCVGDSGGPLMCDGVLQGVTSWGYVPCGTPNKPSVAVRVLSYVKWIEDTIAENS
Sequence of Human plasma kallikrein (P03952 391-638): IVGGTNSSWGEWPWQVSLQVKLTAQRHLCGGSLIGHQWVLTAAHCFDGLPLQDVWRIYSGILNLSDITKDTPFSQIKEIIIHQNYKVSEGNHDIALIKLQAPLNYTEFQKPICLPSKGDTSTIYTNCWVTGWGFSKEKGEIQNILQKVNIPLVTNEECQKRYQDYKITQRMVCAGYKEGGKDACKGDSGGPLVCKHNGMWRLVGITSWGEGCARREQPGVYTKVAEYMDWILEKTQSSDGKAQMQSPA
Sequence of Human plasma kallikrein (P03952 20-390 partner): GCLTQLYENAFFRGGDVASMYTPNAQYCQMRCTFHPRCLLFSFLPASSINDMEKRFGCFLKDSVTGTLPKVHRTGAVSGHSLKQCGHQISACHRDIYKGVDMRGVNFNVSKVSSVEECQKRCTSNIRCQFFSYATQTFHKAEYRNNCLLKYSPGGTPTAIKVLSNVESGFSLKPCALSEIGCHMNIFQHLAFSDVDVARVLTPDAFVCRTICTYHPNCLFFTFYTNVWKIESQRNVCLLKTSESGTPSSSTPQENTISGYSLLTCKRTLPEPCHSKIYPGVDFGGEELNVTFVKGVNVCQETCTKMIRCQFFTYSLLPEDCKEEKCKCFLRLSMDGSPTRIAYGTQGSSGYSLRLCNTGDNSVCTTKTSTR

Structure (SMILES): COCc1nn(Cc2ccc3c(c2)CCN(C)CC3)cc1C(=O)NCc1c(-n2cc(C)nn2)ccc(OC)c1F [Example 121, N-{[2-fluoro-3-methoxy-6-(4-methyl-1,2,3-triazol-1-yl)phenyl]methyl}-3-(methoxymethyl)-1-[(3-methyl-1,2,4,5-tetrahydro-3-benzazepin-7-yl)methyl]pyrazole-4-carboxamide]
IC50 [1]: < 0.01 µM
IC50 [2]: > 40 µM
IC50 [3]: > 40 µM

Structure (SMILES): COCc1nn(Cc2ccc3c(c2)C(=O)N(C)CC3)cc1C(=O)NCc1c(-n2cc(C)nn2)ccc(OC)c1F [Example 73, N-{[2-Fluoro-3-methoxy-6-(4-methyl-1,2,3-triazol-1-yl)phenyl]methyl}-3-(methoxymethyl)-1-[(2-methyl-1-oxo-3,4-dihydroisoquinolin-7-yl)methyl]pyrazole-4-carboxamide]
IC50 [1]: 0.03 to 0.1 µM
IC50 [2]: 11.3 µM
IC50 [3]: > 40 µM

Structure (SMILES): COCc1nn(Cc2ccc3c(c2)CN(C)CC3(C)C)cc1C(=O)NCc1c(-n2cc(C)nn2)ccc(OC)c1F [Example 134, N-{[2-fluoro-3-methoxy-6-(4-methyl-1,2,3-triazol-1-yl)phenyl]methyl}-3-(methoxymethyl)-1-[(2,4,4-trimethyl-1,3-dihydroisoquinolin-7-yl)methyl]pyrazole-4-carboxamide]
IC50 [1]: 0.01 to 0.03 µM
IC50 [2]: > 40 µM
IC50 [3]: > 40 µM

Structure (SMILES): COCc1nn(Cc2cnc3c(c2)CCN(CC(F)F)C3)cc1C(=O)NCc1c(-n2cc(C)nn2)ccc(OC)c1F [Example 115, 1-{[7-(2,2-difluoroethyl)-6,8-dihydro-5H-1,7-naphthyridin-3-yl]methyl}-N-{[2-fluoro-3-methoxy-6-(4-methyl-1,2,3-triazol-1-yl)phenyl]methyl}-3-(methoxymethyl)pyrazole-4-carboxamide]
IC50 [1]: 0.01 to 0.03 µM
IC50 [2]: > 4 µM
IC50 [3]: > 4 µM

Structure (SMILES): COCc1nn(Cc2ccc3c(c2)C2CCCN2CC3)cc1C(=O)NCc1c(-n2cc(C)nn2)ccc(OC)c1F (stereo not drawn) [Example 120, 1-{1H,2H,3H,5H,6H,10bH-pyrrolo[2,1-a]isoquinolin-9-ylmethyl}-N-{[2-fluoro-3-methoxy-6-(4-methyl-1,2,3-triazol-1-yl)phenyl]methyl}-3-(methoxymethyl)pyrazole-4-carboxamide]
IC50 [1]: < 0.01 µM
IC50 [2]: > 40 µM
IC50 [3]: > 40 µM

Structure (SMILES): COCc1nn(Cc2ccc3c(c2)CCN(C)C3=O)cc1C(=O)NCc1c(-n2cc(C)nn2)ccc(OC)c1F [Example 135, N-{[2-fluoro-3-methoxy-6-(4-methyl-1,2,3-triazol-1-yl)phenyl]methyl}-3-(methoxymethyl)-1-[(2-methyl-1-oxo-3,4-dihydroisoquinolin-6-yl)methyl]pyrazole-4-carboxamide]
IC50 [1]: 0.01 to 0.03 µM
IC50 [2]: 16.3 µM
IC50 [3]: > 40 µM

Structure (SMILES): COc1ccc(-n2cnc(C(F)(F)F)n2)c(CNC(=O)c2cnn(Cc3ccc4c(c3)CN(C)CC4)c2)c1F [Example 31, N-({2-fluoro-3-methoxy-6-[3-(trifluoromethyl)-1,2,4-triazol-1-yl]phenyl}methyl)-1-[(2-methyl-3,4-dihydro-1H-isoquinolin-7-yl)methyl]pyrazole-4-carboxamide]
IC50 [1]: < 0.01 µM
IC50 [2]: 34.6 µM
IC50 [3]: > 40 µM

Structure (SMILES): COCc1nn(Cc2ccc3c(c2)CN(C2CC2)CC3)cc1C(=O)NCc1c(-n2ccc(C#N)n2)ccc(OC)c1F [Example 21, N-{[6-(3-cyanopyrazol-1-yl)-2-fluoro-3-methoxyphenyl]methyl}-1-[(2-cyclopropyl-3,4-dihydro-1H-isoquinolin-7-yl)methyl]-3-(methoxymethyl)pyrazole-4-carboxamide]
IC50 [1]: < 0.01 µM
IC50 [2]: 36.8 µM
IC50 [3]: > 40 µM

Structure (SMILES): COc1ccc(-n2cc(C)nn2)c(CNC(=O)c2cnn(Cc3ccc4c(c3)CN(C)CC4)c2)c1F [Example 3, N-{[2-fluoro-3-methoxy-6-(4-methyl-1,2,3-triazol-1-yl)phenyl]methyl}-1-[(2-methyl-3,4-dihydro-1H-isoquinolin-7-yl)methyl]pyrazole-4-carboxamide]
IC50 [1]: < 0.01 µM
IC50 [2]: > 40 µM
IC50 [3]: > 40 µM

Structure (SMILES): COc1ccc(-n2cc(C)nn2)c(CNC(=O)c2cn(Cc3cn4c(n3)CN(C)CC4)nc2C(F)(F)F)c1F [Example 61, N-{[2-fluoro-3-methoxy-6-(4-methyl-1,2,3-triazol-1-yl)phenyl]methyl}-1-({7-methyl-5H,6H,8H-imidazo[1,2-a]pyrazin-2-yl}methyl)-3-(trifluoromethyl)pyrazole-4-carboxamide]
IC50 [1]: 0.03 to 0.1 µM
IC50 [2]: > 40 µM
IC50 [3]: > 40 µM

Continued, values first:

IC50 [1]: 0.03 to 0.1 µM
IC50 [2]: > 40 µM
IC50 [3]: > 40 µM
Structure (SMILES): COCc1nn(Cc2ccc3c(c2)CCN(C2CC2)C3)cc1C(=O)NCc1c(-n2cnc(C(F)(F)F)n2)ccc(OC)c1F [Example 48, 1-[(2-cyclopropyl-3,4-dihydro-1H-isoquinolin-6-yl)methyl]-N-({2-fluoro-3-methoxy-6-[3-(trifluoromethyl)-1,2,4-triazol-1-yl]phenyl}methyl)-3-(methoxymethyl)pyrazole-4-carboxamide]

IC50 [1]: < 0.01 µM
IC50 [2]: > 40 µM
IC50 [3]: > 40 µM
Structure (SMILES): COCc1nn(Cc2ccc3c(c2)CN(C)CC3)cc1C(=O)NCc1c(-n2cncn2)ccc(OC)c1F [Example 7, N-{[2-fluoro-3-methoxy-6-(1,2,4-triazol-1-yl)phenyl]methyl}-3-(methoxymethyl)-1-[(2-methyl-3,4-dihydro-1H-isoquinolin-7-yl)methyl]pyrazole-4-carboxamide]

IC50 [1]: < 0.01 µM
IC50 [2]: > 40 µM
IC50 [3]: > 40 µM
Structure (SMILES): COCc1nn(Cc2ccc3c(c2)CN(C)CC3)cc1C(=O)NCc1c(-n2nc(C)nc2C)ccc(OC)c1F [Example 29, N-{[6-(dimethyl-1,2,4-triazol-1-yl)-2-fluoro-3-methoxyphenyl]methyl}-3-(methoxymethyl)-1-[(2-methyl-3,4-dihydro-1H-isoquinolin-7-yl)methyl]pyrazole-4-carboxamide]

IC50 [1]: < 0.01 µM
IC50 [2]: > 40 µM
IC50 [3]: > 40 µM
Structure (SMILES): CCc1ncn(-c2ccc(OC)c(F)c2CNC(=O)c2cn(Cc3ccc4c(c3)CN(C)CC4)nc2COC)n1 [Example 6, N-{[6-(3-ethyl-1,2,4-triazol-1-yl)-2-fluoro-3-methoxyphenyl]methyl}-3-(methoxymethyl)-1-[(2-methyl-3,4-dihydro-1H-isoquinolin-7-yl)methyl]pyrazole-4-carboxamide]

IC50 [1]: < 0.01 µM
IC50 [2]: > 40 µM
IC50 [3]: > 40 µM
Structure (SMILES): COCc1nn(Cc2ccc3c(c2)CCN(C)CC3)cc1C(=O)NCc1c(-n2cnc(C(F)(F)F)n2)ccc(OC)c1F [Example 158, N-({2-fluoro-3-methoxy-6-[3-(trifluoromethyl)-1,2,4-triazol-1-yl]phenyl}methyl)-3-(methoxymethyl)-1-[(3-methyl-1,2,4,5-tetrahydro-3-benzazepin-7-yl)methyl]pyrazole-4-carboxamide]

IC50 [1]: < 0.01 µM
IC50 [2]: 28.8 µM
IC50 [3]: > 40 µM
Structure (SMILES): COCc1nn(Cc2ccc3c(c2)CN(C)C3)cc1C(=O)NCc1c(-n2cnc(C(F)F)n2)ccc(OC)c1F [Example 57, N-({6-[3-(difluoromethyl)-1,2,4-triazol-1-yl]-2-fluoro-3-methoxyphenyl}methyl)-3-(methoxymethyl)-1-[(2-methyl-1,3-dihydroisoindol-5-yl)methyl]pyrazole-4-carboxamide]

IC50 [1]: 0.03 to 0.1 µM
IC50 [2]: > 40 µM
IC50 [3]: > 40 µM
Structure (SMILES): COCc1nn(Cc2ccc3c(c2)CN(C)CC3)cc1C(=O)NCc1c(-n2ccc(C3CC3)n2)ccc(OC)c1F [Example 9, N-{[6-(3-cyclopropylpyrazol-1-yl)-2-fluoro-3-methoxyphenyl]methyl}-3-(methoxymethyl)-1-[(2-methyl-3,4-dihydro-1H-isoquinolin-7-yl)methyl]pyrazole-4-carboxamide]

IC50 [1]: 0.1 to 1 µM
IC50 [2]: > 40 µM
IC50 [3]: > 40 µM
Structure (SMILES): COCc1nn(Cc2ccc3c(c2)CN(C)CC3)cc1C(=O)NCc1c(-n2cnc(C(F)F)n2)ccc(C(C)(F)F)c1F [Example 157, N-{[3-(1,1-difluoroethyl)-6-[3-(difluoromethyl)-1,2,4-triazol-1-yl]-2-fluorophenyl]methyl}-3-(methoxymethyl)-1-[(2-methyl-3,4-dihydro-1H-isoquinolin-7-yl)methyl]pyrazole-4-carboxamide]
